# Target: T1, kappa-opioid receptor (KOP) (Homo sapiens, UniProt P41145)
# T1 construct: gene OPRK1
# Assay: FLIM in live cells: blocks the dynorphin A-induced change of KOP-eGFP lifetime
# Type: cell-based
# T1 sequence (P41145 whole entry): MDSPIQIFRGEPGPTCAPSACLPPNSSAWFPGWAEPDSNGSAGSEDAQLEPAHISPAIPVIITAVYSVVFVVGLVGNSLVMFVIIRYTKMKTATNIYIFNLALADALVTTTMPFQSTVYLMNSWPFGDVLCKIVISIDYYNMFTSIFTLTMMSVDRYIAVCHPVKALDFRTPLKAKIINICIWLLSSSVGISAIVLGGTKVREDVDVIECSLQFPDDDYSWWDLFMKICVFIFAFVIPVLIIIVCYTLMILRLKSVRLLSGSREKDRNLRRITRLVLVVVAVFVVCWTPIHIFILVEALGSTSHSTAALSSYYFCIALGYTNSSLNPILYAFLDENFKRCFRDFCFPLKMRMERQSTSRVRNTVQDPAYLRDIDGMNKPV
structure (smiles),measurement,value
CC(C)[C@@H](CN1CC[C@@](C)(c2cccc(O)c2)[C@@H](C)C1)NC(=O)[C@H]1Cc2ccc(O)cc2CN1 [JDTic],FLIM in live cells: blocks the dynorphin A-induced change of KOP-eGFP lifetime,"both NTX and the KOP-selective antagonist JDTic blocked this effect, suggesting that DynA binds to KOP-eGFP"

# Reference: article PMC11586411 (Translational Psychiatry, 2023)
